Assays:
[1] = tested on: pigweed; test: Test B pre/postemergence pigweed; format: in vivo, Amaranthus retroflexus
Summary of the method: (§1)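 Response is a visual 0-to-10 score relative to untreated plants, where 0 means no effect and 10 means complete control, taken twelve to sixteen days after application. Treatments went onto soil at planting and onto foliage of 1- to 4-leaf plants, using a surfactant-containing non-phytotoxic solvent.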

[2] = tested on: velvetleaf; test: Test B pre/postemergence velvetleaf; format: in vivo, Abutilon theophrasti
Summary of the method: as §1

[3] = tested on: cocklebur; test: Test B pre/postemergence cocklebur; format: in vivo, Xanthium strumarium
Summary of the method: as §1

[4] = tested on: corn; test: Test B pre/postemergence corn; format: in vivo, Zea mays
Summary of the method: as §1

[5] = tested on: soybean; test: Test B pre/postemergence soybean; format: in vivo, Glycine max
Summary of the method: as §1

[6] = tested on: morningglory; test: Test B pre/postemergence morningglory; format: in vivo, Ipomoea hederacea
Summary of the method: as §1

[7] = tested on: bedstraw; test: Test B pre/postemergence bedstraw; format: in vivo, Galium aparine; settings: Preemergence; for Bedstraw plant response rating: scale 0 to 10, 0 is no effect, 10 is complete control
Summary of the method: as §1

[8] = tested on: sugar beet; test: Test B pre/postemergence sugar beet; format: in vivo, Beta vulgaris
Summary of the method: as §1

[9] = tested on: duck salad; test: Test B flood test duck salad; format: in vivo, Heteranthera limosa
Summary of the method: (§2)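 Plants were grown to the 2-leaf stage before treatment with test chemical, then held in a greenhouse for twelve to sixteen days. Injury was visually rated against untreated controls on a 0–10 scale, where 0 is no effect and 10 is complete control.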

[10] = tested on: smallflower flatsedge; test: Test B flood test smallflower flatsedge; format: in vivo, Cyperus difformis
Summary of the method: as §2

[11] = tested on: crabgrass; test: Test B pre/postemergence crabgrass; format: in vivo, Digitaria sanguinalis
Summary of the method: as §1

[12] = tested on: rape; test: Test B pre/postemergence rape; format: in vivo, Brassica napus
Summary of the method: as §1

[13] = tested on: giant foxtail; test: Test B pre/postemergence giant foxtail; format: in vivo, Setaria faberii
Summary of the method: as §1

[14] = tested on: rice; test: Test B flood test rice; format: in vivo, Oryza sativa
Summary of the method: as §2

[15] = tested on: blackgrass; test: Test B pre/postemergence blackgrass; format: in vivo, Alopecurus myosuroides
Summary of the method: as §1

[16] = tested on: bamyardgrass; test: Test B flood test barnyardgrass; format: in vivo, Echinochloa crus-galli
Summary of the method: as §2

[17] = tested on: surinam grass; test: Test B pre/postemergence surinam grass; format: in vivo, Brachiaria decumbens
Summary of the method: as §1

[18] = tested on: purple nutsedge; test: Test B pre/postemergence purple nutsedge; format: in vivo, Cyperus rotundus
Summary of the method: as §1

[19] = tested on: wheat; test: Test B pre/postemergence wheat; format: in vivo, Triticum aestivum
Summary of the method: as §1

[20] = tested on: wild oat; test: Test B pre/postemergence wild oat; format: in vivo, Avena fatua
Summary of the method: as §1

[21] = Postemergence, Rate 62 g/ha, scale of 0 to 10, 0 is no effect, 10 is complete control
[22] = Postemergence, Rate 125 g/ha, scale 0 to 10, 0 is no effect, 10 is complete control
[23] = Postemergence, Rate 500 g/ha, scale 0 to 10, 0 is no effect, 10 is complete control
[24] = Preemergence, Rate 62 g/ha, scale of 0 to 10 where 0 is no effect and 10 is complete control
[25] = Preemergence, Rate 125 g/ha, scale 0 to 10, 0 is no effect, 10 is complete control
[26] = Preemergence, Rate 500 g/ha, scale of 0 to 10 where 0 is no effect and 10 is complete control
[27] = Postemergence, Rate 250 g/ha, scale 0 to 10
[28] = Preemergence, Rate 250 g/ha, scale 0 to 10, 0 is no effect, 10 is complete control
[29] = Rate 62 g/ha, flood test species, Pre-emergence, visual evaluation after twelve to sixteen days
[30] = Rate 125 g/ha, under heading Pre-emergence, flood test species, visual evaluation after twelve to sixteen days
[31] = Rate 250 g/ha, Pre-emergence (flood test species), scale 0 to 10, 0 is no effect, 10 is complete control
[32] = Rate 500 g/ha, Pre-emergence section of Table B, 0 to 10 scale (0 no effect, 10 complete control)

SMILES: CCc1nc(C)c(Cn2c(=O)on(C(=O)N(c3ccc(Cl)cc3)C(C)C)c2=O)s1 [Compound 499]
- Redroot pigweed plant response rating [1, 21]: 0
- Redroot pigweed plant response rating [1, 22]: 0
- Plant response rating, Redroot pigweed [1, 23]: 0
- Plant response rating, Redroot pigweed [1, 24]: 0
- Redroot pigweed plant response rating [1, 25]: 0
- Redroot pigweed plant response rating [1, 26]: 0
- Velvetleaf plant response rating [2, 21]: 0
- Velvetleaf plant response rating [2, 22]: 0
- Plant response rating, Velvetleaf [2, 23]: 0
- Plant response rating, Velvetleaf [2, 24]: 0
- Velvetleaf plant response rating [2, 25]: 0
- Velvetleaf plant response rating [2, 26]: 0
- Cocklebur plant response rating [3, 21]: 0
- Cocklebur plant response rating [3, 22]: 0
- Cocklebur plant response rating [3, 27]: 2
- Plant response rating, Cocklebur [3, 23]: 4
- Cocklebur plant response rating [3, 25]: 0
- Cocklebur plant response rating [3, 28]: 0
- Cocklebur plant response rating [3, 26]: 4
- Corn plant response rating [4, 21]: 0
- Corn plant response rating [4, 22]: 0
- Corn plant response rating [4, 27]: 0
- Plant response rating, Corn [4, 23]: 0
- Plant response rating, Corn [4, 24]: 0
- Corn plant response rating [4, 25]: 0
- Corn plant response rating [4, 26]: 0
- Soybean plant response rating [5, 21]: 0
- Soybean plant response rating [5, 22]: 1
- Plant response rating, Soybean [5, 23]: 3
- Plant response rating, Soybean [5, 24]: 0
- Soybean plant response rating [5, 25]: 0
- Soybean plant response rating [5, 26]: 0
- Morningglory plant response rating [6, 21]: 3
- Morningglory plant response rating [6, 22]: 3
- Plant response rating, Morningglory [6, 23]: 6
- Plant response rating, Morningglory [6, 24]: 0
- Morningglory plant response rating [6, 25]: 0
- Morningglory plant response rating [6, 26]: 0
- Plant response rating, Bedstraw ([7]; Rate 62 g/ha, scale of 0 to 10 where 0 is no effect and 10 is complete control): 0
- Bedstraw plant response rating ([7]; Rate 125 g/ha): 0
- Bedstraw plant response rating ([7]; Rate 250 g/ha): 0
- Sugarbeets plant response rating [8, 21]: 0
- Sugarbeets plant response rating [8, 22]: 0
- Plant response rating, Sugarbeets [8, 23]: 0
- Plant response rating, Sugarbeets [8, 24]: 0
- Sugarbeets plant response rating [8, 25]: 0
- Sugarbeets plant response rating [8, 26]: 0
- Plant response rating, Ducksalad (0 to 10 scale, 0 is no effect, 10 is complete control) [9, 29]: 0
- Ducksalad plant response rating (0 to 10 scale, 0 is no effect, 10 is complete control) [9, 30]: 0
- Ducksalad plant response rating [9, 31]: 0
- Ducksalad plant response rating [9, 32]: 0
- Plant response rating, S. Flatsedge (0 to 10 scale, 0 is no effect, 10 is complete control) [10, 29]: 0
- S. Flatsedge plant response rating (0 to 10 scale, 0 is no effect, 10 is complete control) [10, 30]: 0
- S. Flatsedge plant response rating [10, 31]: 0
- S. Flatsedge plant response rating [10, 32]: 0
- Crabgrass plant response rating [11, 21]: 0
- Crabgrass plant response rating [11, 22]: 0
- Crabgrass plant response rating [11, 27]: 0
- Plant response rating, Crabgrass [11, 23]: 0
- Plant response rating, Crabgrass [11, 24]: 4
- Crabgrass plant response rating [11, 25]: 6
- Crabgrass plant response rating [11, 26]: 8
- Rape plant response rating [12, 21]: 0
- Rape plant response rating [12, 22]: 0
- Plant response rating, Rape [12, 23]: 0
- Plant response rating, Rape [12, 24]: 0
- Rape plant response rating [12, 25]: 0
- Rape plant response rating [12, 26]: 0
- Giant foxtail plant response rating [13, 21]: 0
- Giant foxtail plant response rating [13, 22]: 0
- Plant response rating, Giant foxtail [13, 23]: 2
- Plant response rating, Giant foxtail [13, 24]: 3
- Giant foxtail plant response rating [13, 25]: 5
- Giant foxtail plant response rating [13, 26]: 10
- Plant response rating, Rice (0 to 10 scale, 0 is no effect, 10 is complete control) [14, 29]: 0
- Rice plant response rating (0 to 10 scale, 0 is no effect, 10 is complete control) [14, 30]: 0
- Rice plant response rating [14, 31]: 0
- Rice plant response rating [14, 32]: 0
- Blackgrass plant response rating [15, 21]: 0
- Blackgrass plant response rating [15, 22]: 0
- Blackgrass plant response rating [15, 27]: 2
- Plant response rating, Blackgrass [15, 23]: 4
- Plant response rating, Blackgrass [15, 24]: 0
- Blackgrass plant response rating [15, 25]: 0
- Blackgrass plant response rating [15, 28]: 0
- Blackgrass plant response rating [15, 26]: 1
- Plant response rating, Barnyardgrass (0 to 10 scale, 0 is no effect, 10 is complete control) [16, 29]: 0
- Barnyardgrass plant response rating (0 to 10 scale, 0 is no effect, 10 is complete control) [16, 30]: 0
- Barnyardgrass plant response rating [16, 31]: 0
- Barnyardgrass plant response rating [16, 32]: 0
- B. signalgrass plant response rating [17, 21]: 0
- B. signalgrass plant response rating [17, 22]: 0
- B. signalgrass plant response rating ([17]; Postemergence, Rate 250 g/ha, scale 0 to 10, 0 no effect, 10 complete control): 0
- Plant response rating, B. signalgrass [17, 23]: 0
- Plant response rating, B. signalgrass [17, 24]: 0
- B. signalgrass plant response rating [17, 25]: 0
- B. signalgrass plant response rating [17, 28]: 0
- B. signalgrass plant response rating ([17]; Preemergence, Rate 500 g/ha, scale 0 to 10, 0 is no effect, 10 is complete control): 2
- Nutsedge plant response rating [18, 21]: 0
- Nutsedge plant response rating [18, 22]: 0
- Plant response rating, Nutsedge [18, 23]: 0
- Nutsedge plant response rating [18, 25]: 0
- Nutsedge plant response rating [18, 26]: 0
- Wheat plant response rating [19, 21]: 0
- Wheat plant response rating [19, 22]: 0
- Plant response rating, Wheat [19, 23]: 0
- Plant response rating, Wheat [19, 24]: 0
- Wheat plant response rating [19, 25]: 0
- Wheat plant response rating [19, 26]: 0
- Wild oats plant response rating [20, 21]: 0
- Wild oats plant response rating [20, 22]: 0
- Plant response rating, Wild oats [20, 23]: 0
- Plant response rating, Wild oats [20, 24]: 0
- Wild oats plant response rating [20, 25]: 0
- Wild oats plant response rating [20, 26]: 0
